# Data published in patent publication US20230218604A1, “PPARy AGONIST FOR TREATMENT OF PROGRESSIVE [sequence] PALSY” (Coherus Biosciences, Inc., priority 2022, published 2023).
# “And” between values parts separate entries of the source, which are not always exact repeats. Identical values can stand only once. “Also recorded” adds a separate entry of the source.
# How the values were obtained:
# adiponectin [1] = assay: 24-week randomized, double-blind, placebo-controlled study in type 2 diabetes: serum adiponectin levels; format: in vivo, human; conditions: for Mean Adiponectin, Week 24 / Mean Change in adiponectin from baseline (Week 0) to Week 24 / Mean Adiponectin, Week 0: (SD); for Mean Change in adiponectin from baseline (Week 0) to Week 24: LOCF; for Mean Adiponectin, Week 0: baseline, type 2 diabetes subjects
# Description: A randomized, double-blind, placebo-controlled, 24-week study was conducted in which adiponectin levels were measured. […] 367 subjects with type 2 diabetes (TD2)—a disease in which patient adiponectin levels are reduced—were randomly assigned to receive either 0.5, 1, 2 or 3 milligrams (“mg”) of INT131 besylate, 45 mg of pioglitazone or placebo daily for 24 weeks. To measure adiponectin levels blood was drawn at Weeks 0, 2, 6, 12 and 24. At baseline (Week 0) mean adiponectin levels were 1.94 micrograms per milliliter (“µg/mL”). The mean adiponectin levels at baseline and Week 24, and the mean change in adiponectin levels from baseline (Week 0) to Week 24 are disclosed in Table 1, below. The standard deviation for samples tested in each group is listed in (parenthesis). Mean baseline adiponectin values were similar for the treatment groups.
# HbA1c [2] = assay: 24-week randomized, double-blind, placebo-controlled study in type 2 diabetes: HbA1c levels; format: in vivo, human; conditions: 24 weeks
# adiponectin [3] = assay: 14-day study of serum adiponectin levels in healthy subjects; format: in vivo, human
# Description: A study was conducted to determine the effect of INT131 on serum adiponectin levels. Thirty healthy subjects were randomly selected to receive either placebo, 0.1 mg INT131, 1 mg INT131 or 4 mg INT131 daily for 14 days. To measure adiponectin levels blood was drawn at Days 1, 4, 8 and 14.
# [4] = RRMS study: monthly contrast MRI, cumulative CE lesions and new/enlarged T2 lesions; format: in vivo, human; conditions: for Reduction of CE lesion burden vs. placebo: 6 months; for Cumulative CE lesions over 6 months: complete case analysis
# Description: (§1) 227 treatment-naive adult subjects (mean age 31 [range 18-50]; 65% female) were randomized into one of three arms: oral CHS-131 at 3 mg (n=76); oral CHS-131 at 1 mg (n=76); placebo (n=75), at 21 sites in Russia. 97% completed Part 1. Inclusion criteria: Relapsing Remitting Multiple Sclerosis (RRMS) for ≤3 years, ≥1 gadolinium-positive lesion within 1-year of enrollment, and an EDSS ≤ 6 at screening. The patients underwent monthly MRI examinations with contrast to identify new inflammatory lesions. All MRIs were read blinded at the Buffalo Neuroimaging Center (Buffalo, NY). In addition to CE lesions the images were scored for cumulative new/enlarged T2 lesions, and serial cortical and whole brain volumetric analysis.
# [5] = RRMS study: serial cortical and whole brain volumetric MRI analysis; format: in vivo, human; conditions: 3 mg daily, 6 months
# Description: as §1
# HbA1c [6] = conditions: DePaoli et al. Diabetes Care 2014; cited from earlier work
# [7] = subjects taking INT131 vs those taking pioglitazone; DePaoli et al. 2014; cited from earlier work
# [8] = in vivo; cited from earlier work
compound,measurement,setting,value
O=S(=O)(Nc1cc(Cl)c(Oc2cnc3ccccc3c2)c(Cl)c1)c1ccc(Cl)cc1Cl [INT131],"Mean Adiponectin, Week 24",adiponectin [1]; 0.5 mg INT131 daily for 24 weeks,2.28 (1.540) µg/mL
same,Mean Change in adiponectin from baseline (Week 0) to Week 24,adiponectin [1]; 0.5 mg INT131 daily,0.56 µg/mL and 0.56 (0.906) µg/mL
same,"Mean Adiponectin, Week 0",adiponectin [1]; 0.5 mg INT131 group,1.73 (1.190) µg/mL
same,"Adiponectin levels, treatment comparison with pioglitazone 45 mg","adiponectin [1]; 0.5 mg, 1 mg and 3 mg doses of INT131, p≤0.0408",statistically significant
same,"Mean Adiponectin, Week 24",adiponectin [1]; 1 mg INT131 daily for 24 weeks,3.15 (2.533) µg/mL
same,Mean Change in adiponectin from baseline (Week 0) to Week 24,adiponectin [1]; 1 mg INT131 daily,1.28 µg/mL and 1.28 (1.882) µg/mL
same,"Mean Adiponectin, Week 0",adiponectin [1]; 1 mg INT131 group,1.87 (1.217) µg/mL
same,"Adiponectin levels, treatment comparison with placebo","adiponectin [1]; 1 mg, 2 mg and 3 mg doses of INT131, p≤0.0109",statistically significant increase
same,"Mean Adiponectin, Week 24",adiponectin [1]; 2 mg INT131 daily for 24 weeks,5.14 (3.650) µg/mL
same,Mean Change in adiponectin from baseline (Week 0) to Week 24,adiponectin [1]; 2 mg INT131 daily,3.27 µg/mL and 3.27 (3.002) µg/mL
same,"Mean Adiponectin, Week 0",adiponectin [1]; 2 mg INT131 group,1.87 (1.098) µg/mL
same,"Mean Adiponectin, Week 24",adiponectin [1]; 3 mg INT131 daily for 24 weeks,5.83 (4.826) µg/mL
same,Mean Change in adiponectin from baseline (Week 0) to Week 24,adiponectin [1]; 3 mg INT131 daily,3.83 µg/mL and 3.83 (4.313) µg/mL
same,"Mean Adiponectin, Week 0",adiponectin [1]; 3 mg INT131 group,2.00 (1.215) µg/mL
same,Reduction of HbA1c levels as compared to placebo,"HbA1c [2]; 1, 2 and 3 mg doses of INT131 daily",statistically significant reduction
same,Reduction of HbA1c levels compared with 45 mg of pioglitazone,HbA1c [2]; 2 and 3 mg doses of INT131 daily,at least as well as 45 mg of pioglitazone
same,"Change in serum adiponectin levels, Day 1 to Day 14 and over placebo",adiponectin [3]; 0.1 mg INT131 daily for 14 days,no significant change
same,Change in serum adiponectin levels over placebo and from Day 1 to Day 14,adiponectin [3]; 1 mg or 4 mg INT131 daily for 14 days,significant change
same,"Cumulative CE lesions over 6 months, LSMean",[4]; 1 mg oral,5.15
same,Reduction of CE lesion burden vs. placebo,"[4]; 1 mg oral, p=ns",21%
same,Cumulative CE lesions over 6 months,[4]; 1 mg oral,7.6
same,Reduction of new/enlarged T2 lesions compared to placebo,"[4]; 1 mg, p=ns",14%
same,"Cumulative CE lesions over 6 months, LSMean",[4]; 3 mg daily oral,3.10
same,Reduction of CE lesion burden vs. placebo,"[4]; 3 mg daily oral, p=0.003",52%
same,Cumulative CE lesions over 6 months,[4]; 3 mg daily oral,4.2 lesions
same,Reduction of new/enlarged T2 lesions compared to placebo,"[4]; 3 mg, p=0.0767",30%
same,Less cortical volume loss compared to placebo,[5],34.2%
same,Less whole brain volume loss compared to placebo,[5],50%
same,Efficacy in reducing HbA1c levels versus 45 mg of pioglitazone,HbA1c [6],equally efficacious
same,Side effects versus pioglitazone,[7],"less edema, weight gain, and hemodilution"
same,Crossing of the blood brain barrier,[8],more readily than other PPARγ agonists; also recorded: readily crosses the blood brain barrier
"CCc1ccc(CCOc2ccc(CC3SC(=O)NC3=O)cc2)nc1 (centres unmarked) [pioglitazone, reference compound]","Mean Adiponectin, Week 24",adiponectin [1]; 45 mg pioglitazone daily for 24 weeks,5.28 (3.222) µg/mL
same,Mean Change in adiponectin from baseline (Week 0) to Week 24,adiponectin [1]; 45 mg pioglitazone daily,2.96 µg/mL
same,Mean Change in adiponectin from baseline (Week 0) to Week 24,"adiponectin [1]; 45 mg pioglitazone daily, listed as Pioglitazone",2.96 (2.618) µg/mL
same,"Mean Adiponectin, Week 0",adiponectin [1]; 45 mg pioglitazone group,2.32 (2.185) µg/mL
